Laboratory results from patent US20250250629A1, “NUCLEOTIDE CYCLIC CLEAVABLE MOIETIES AND USES THEREOF” (Singular Genomics Systems, Inc., priority 2022, published 2025).

Assay: Storage stability of reversibly terminated nucleotides (percentage of deblocked nucleotides, in-house assay)
Assay type: physicochemical
Conditions: for percentage of deblocked nucleotides (3′-OH, loss of reversible terminator) over time: stored at 20° C. over 21 days (vs. 4° C.)
Procedure: FIGS. 1A-1B depict storage stability studies of nucleotides stored at both 4° C. and 20° C. over a period of 21 days. The stability of the reversibly terminated nucleotide can be measured by the % of nucleotides that lose the reversible terminator moiety (e.g., via spontaneous fragmentation or reduction to yield a 3′-OH). […] (black) and 20° C. (light). […] (black) and 20° C. (light).
The stability of a reversibly terminated nucleotide can be measured by determining the loss of the reversible terminator over time. FIGS. 1A-1B depict the storage stability of nucleotides having a linear disulfide RT and cyclic disulfide RT stored at both 4° C. and 20° C. over a period of 21 days. The linear disulfide RT tested has the structure:
A buffer containing 200 nM of each nucleotide was stored at 4° C. and 20° C. over a period of 21 days and the percentage of deblocked nucleotides (i.e., those having loss of 3′-OH reversible terminator) was determined using an in-house assay. The stability of the reversibly terminated nucleotide can be measured by the % of nucleotides that lose the reversible terminator moiety (e.g., via spontaneous fragmentation or reduction to yield a 3′-OH). […] (black) and 20° C. (light). […] (black) and 20° C. (light). As observed in FIG. 1A, the average percentage of reversible terminator loss is about 0.13%+/−0.05% when stored at 4° C., and is considered relatively stable when stored under these conditions. […] Subsequent storage stability studies indicate the nucleotides are stable, wherein the average percentage of reversible terminator loss is less than about 0.15%, beyond 120 days at both 20° C. and 4° C.

[1] = buffer containing 200 nM nucleotide

SMILES | percentage of deblocked nucleotides (3′-OH, loss of reversible terminator) over time [1] | average percentage of reversible terminator loss (subsequent storage stability studies, beyond 120 days at 4° C.) | average percentage of reversible terminator loss (subsequent storage stability studies, beyond 120 days at 20° C.) | average percentage of reversible terminator loss (buffer containing 200 nM nucleotide, stored at 4° C. over 21 days)
Cc1cn(C2CC(OC3CCCSS3)C(COP(=O)(O)OP(=O)(O)OP(=O)(O)O)O2)c(=O)[nH]c1=O (centres unmarked) [cyclic disulfide RT] | less prone to spontaneously losing the 3′ reversible terminator | less than 0.15% | less than 0.15% | –
CSSC(C)OC1CC(n2cc(C)c(=O)[nH]c2=O)OC1COP(=O)(O)OP(=O)(O)OP(=O)(O)O (centres unmarked) [linear disulfide RT, reference compound] | grows over time | – | – | about 0.13%+/−0.05
